# Experimental data from patent publication US20250295729A1, “NOVEL THERAPEUTIC METHODS OF USING PEPTIDOGLYCAN MUROPEPTIDES TO PROMOTE ATP SYNTHASE ACTIVITY AND MITOCHONDRIAL HOMEOSTASIS AND DEVELOPMENT” (The Regents of the University of Colorado, a body corporate, priority 2021, published 2025).
# Assays:
# C. elegans [1] = assay: Developmental rate (growth delay) of worms fed PG mutant E. coli with supplementation; format: in vivo; details: supplement added
# Description: E. coli Keio collection screen: Bacterial peptidoglycan (PG) metabolism-related genes were determined based on the published papers (Table 1) and the PG mutant sub-library was assembled from the Keio E. coli single mutant collection. Mutant bacteria strains, as well as the wild-type control strain BW25113, were cultured overnight in LB medium with 50 μg/ml kanamycin in 96-well plates at 37° C. 100 μl of the overnight E. coli cultures were spotted onto 6 cm NGM plates and dried at room temperature for 1h before use. About 200 synchronized L1 worms were then placed on the seeded NGM plates and cultured at 20° C. Animals were screened after 54-56 hours. Worm developmental rates were determined by vulval development as previously described. To quantify the developmental rate, about 50 animals were scored under Nomarski microscope. To verify the genotypes of the 4 candidate Keio mutants, PCR were performed on each mutant colony and the control BW25113 strain using specific downstream genomic primers together with kanamycin-cassette-specific primers. […]
# (§1) Quantification and Statistical analysis: ImageJ software was used for quantifying fluorescence intensity of various of reporters. […]
# Phsp-6::gfp = assay: Mt stress/UPRmt reporter (Phsp-6::gfp) in worms; format: in vivo, C. elegans; details: worms fed PG mutant E. coli, supplement added
# Description: (§2) C. elegans strains and maintenance: C. elegans strains were grown and maintained on nematode growth media (NGM) plates seeded with the Escherichia coli strain OP50 at 20° C. The following strains were obtained from Caenorhabditis Genetics Center (CGC): N2 Bristol (wild-type control strain), SJ4100: zcIs13 [Phsp-6::gfp] V, SJ4058: zcIs9 [Phsp-60::gfp+lin-15 (+)/V, SJ4197: zcIs39 [Pdve-1::dve-1::gfp] II, SJ4005: zcIs4 [Phsp-4::gfp] V, TJ375: gpIs1 [Phsp-16.2::gfp], AY101: acIs101 [PF35E12.5::gfp+rol-6(su1006)], AU133: agIs17 [Pmyo-2::mCherry+Pirg-1::gfp] IV, CF1553: muIs84 [(pAD76) sod-3p::GFP+rol-6(su1006)]. mai-2 (xm19) was obtained from Dr. R. E. Navarro (Universidad Nacional Autonoma de Mexico).
# PG isolation, enzyme treatment and supplementation assays: An adapted method was used to isolate peptidoglycan from bacterial cultures. In brief, bacterial pellets were resuspended in 1/10 vol 1M NaCl solution and boiled at 100° C. in a heating block for 1 h. […]
# (§3) Microscopy: Analysis of fluorescence was performed under Nomarski optics on a Zeisis Axioplan2 microscope with a Zeiss AxioCam MRm CCD camera. […]
# as §1
# ROS = ROS staining (H2DCFDA) in C. elegans; format: in vivo; details: worms fed erfK mutant E. coli
# Description: ROS measurements in C. elegans: The ROS staining protocol was modified from. Briefly, L4 stage animals were collected and washed three times with M9 buffer to remove the bacteria. Then the worms were transferred into the staining solution (H2DCFDA, 50 uM in M9 buffer) and incubated for 30 min at 20° C. After washing twice with M9 buffer, worms were subjected to microscopic examination.
# SOD-3::GFP = SOD-3::GFP oxidative stress reporter in worms; format: in vivo, C. elegans; details: worms fed erfK mutant E. coli
# Description: as §2
# Chemical supplementation: The NAC (Fisher Scientific, ICN10009825) stock solution (500 mM) was made in ddH2O. For NAC supplementation, NAC solution was added in NGM agar to the final concentration of 50 mM. For iron supplementation, FeCl3 (Sigma, 236489) was dissolved in ddH2O to generate solutions of desired concentration (2 mM, 8 mM and 20 mM). […]
# as §3, §1
# C. elegans [2] = assay: Food avoidance behavior assay; format: in vivo; details: worms fed PG mutant E. coli, supplement added
# Description: Food avoidance behavior assay: Food avoidance behavior assay was determined using a method adapted from a published procedure (Kniazeva et al., 2015; Melo and Ruvkun, 2012). Briefly, overnight cultures of wild type and PG mutant E. coli were adjusted to the same OD600 and 20 μl of each culture was seeded on the center of 6 cm NGM plates. The seeded plates were dried at room temperature for 1 hour before use. About 100 synchronized L1 animals were then dropped onto the bacterial lawns and cultured for 45 hours at 20° C. The avoidance index was determined by Noff/on/Ntotal. Each assay was conducted in triplicate.
# Heat-killed E. coli preparation and supplementation: We followed an established protocol to prepare heat-killed (HK) E. coli: standard overnight bacterial cultures were concentrated to 1/10 vol and were then heated in a 75° C. water bath for 90 min. For HK-E. coli supplementation, live E. coli and HK-E. coli were mixed at a 1:1 ratio then 20 μl (avoidance behavior assay) or 50 μl (other assays) mixtures were dropped on the NGM plates and dried at room temperature for 10 min before use. About 100-200 synchronized L1 animals were placed on the bacterial lawn to grow at 20° C.
# PG isolation, enzyme treatment and supplementation assays: An adapted method was used to isolate peptidoglycan from bacterial cultures. […]
Structure (SMILES),growth delay (developmental delay) (C. elegans [1]),Mt stress (Phsp-6::gfp) (Phsp-6::gfp),ROS level (H2DCFDA staining) (ROS),increase in SOD-3 level (SOD-3::GFP) (SOD-3::GFP),food avoidance behavior (C. elegans [2])
"[Cl][Fe]([Cl])[Cl] [iron, FeCl3]",could not suppress,could not suppress,–,–,–
"CC(=O)N[C@@H](CS)C(=O)O [NAC, N-acetyl-L-cysteine]",significantly suppressed,significantly suppressed,suppressed,eliminated,significantly suppressed
